US9765075B2, “Substituted bridged urea analogs as sirtuin modulators” (GLAXOSMITHKLINE LLC, priority 2013, dated 2017)
Changes are numbered by the printed parent chain. Where a name gives a salt, the structure may show the parent alone.

Legend:
Experiment in all cases: SIRT1 inhibition assay, OAcADPr mass spectrometry
Format in all cases: biochemical
full-length hSIRT1 E230K = target: T1, full-length hSIRT1 E230K (Homo sapiens, UniProt Q96EB6, E230K)
T1 construct: His6 (C); made in house
T1 sequence (Q96EB6 1-747 E230K): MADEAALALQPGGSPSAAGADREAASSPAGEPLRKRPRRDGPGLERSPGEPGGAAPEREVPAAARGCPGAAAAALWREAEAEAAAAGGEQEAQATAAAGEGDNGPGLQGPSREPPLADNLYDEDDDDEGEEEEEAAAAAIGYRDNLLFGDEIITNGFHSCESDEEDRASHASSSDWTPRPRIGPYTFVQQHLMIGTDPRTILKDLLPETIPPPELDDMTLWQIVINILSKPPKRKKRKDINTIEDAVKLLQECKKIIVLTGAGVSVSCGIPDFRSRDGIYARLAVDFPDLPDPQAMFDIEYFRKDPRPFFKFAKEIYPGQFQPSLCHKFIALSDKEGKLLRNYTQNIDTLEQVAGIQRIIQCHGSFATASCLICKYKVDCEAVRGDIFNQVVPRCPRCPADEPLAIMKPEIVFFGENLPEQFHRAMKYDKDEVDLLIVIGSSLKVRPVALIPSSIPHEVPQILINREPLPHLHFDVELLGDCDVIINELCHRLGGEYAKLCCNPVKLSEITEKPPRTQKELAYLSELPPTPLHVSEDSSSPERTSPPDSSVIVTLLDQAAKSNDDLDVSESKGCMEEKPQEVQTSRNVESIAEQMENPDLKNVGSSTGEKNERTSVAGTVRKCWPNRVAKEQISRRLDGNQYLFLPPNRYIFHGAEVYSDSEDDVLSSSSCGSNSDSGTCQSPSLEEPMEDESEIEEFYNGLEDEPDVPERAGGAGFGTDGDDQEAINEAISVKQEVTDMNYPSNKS
Experimental: (§1) SIRT1 activation and inhibition assays were run in reaction buffer with 0.05% BSA at 25° C. and analyzed using the OAcADPr assay. Enzyme and compound were pre-incubated for 20 minutes before addition of substrates.

full-length hSIRT1 I223R = target: T2, full-length hSIRT1 I223R (Homo sapiens, UniProt Q96EB6, I223R)
T2 construct: made in house
T2 sequence (Q96EB6 1-747 I223R): T1 sequence (Q96EB6 1-747 E230K) with I223R, K230E
Experimental: as §1

full-length hSIRT1 E230Q = target: T3, full-length hSIRT1 E230Q (Homo sapiens, UniProt Q96EB6, E230Q)
T3 construct: His6 (C); made in house
T3 sequence (Q96EB6 1-747 E230Q): T1 sequence (Q96EB6 1-747 E230K) with K230Q
Experimental: as §1

Question: With CCCC[C@H](NC(=O)[C@H](CC(C)C)NC(=O)[C@H](CCCCNC(=O)C(F)(F)F)NC(=O)[C@H](CCCCN)NC(=O)[C@H](Cc1c[nH]cn1)NC(=O)[C@H](CCCNC(=N)N)NC(C)=O)C(=O)N[C@@H](Cc1ccccc1)C(N)=O [TFA-p53 7-mer, Ac-RHK-K^TFA-L-Nle-F-NH2] as the molecule, how does the IC50 (full-length hSIRT1 E230K) read?
Answer: The IC50 was 1.6 ± 0.3 µM.

Question: And the IC50 (full-length hSIRT1 I223R)?
Answer: The IC50 was 0.66 ± 0.06 µM.

Question: And the IC50 (full-length hSIRT1 E230Q)?
Answer: Its IC50 is 0.86 ± 0.06 µM.
